Measurements from paper PMC10600239, “Selective MCL-1 inhibitor ABBV-467 is efficacious in tumor models but is associated with cardiac troponin increases in patients” (Communications Medicine, 2023).
Values joined by “and” are separate entries in the source; they are usually repeats but may differ in a detail not shown here. Equal values may be shown once. Read-outs that look alike come from different tables or passages of the source.

What was measured:
[1] = test system: AMO-1 cells; assay: In vitro cell viability assay (CellTiter-Glo); format: cell-based, human; conditions: Homo sapiens
Experimental: (§1) All cell lines were grown and treated in RPMI 1640 or Dulbecco’s modified Eagle medium (Sigma, St. Louis, MO) supplemented with 10% fetal bovine serum (Gibco) or 10% human serum (Sigma) and maintained in a humidified incubator at 5% CO2 and 37 °C. DLD-1, MV4-11, NCI-H929 (all ATCC, Manassas, VA, USA) and AMO-1 (DSMZ, Braunschweig, Germany) cells were plated 4000 cells per well in 384-well tissue culture plates and treated with compounds of interest for 24 h at 37 °C, 5% CO2 humidified incubator. Each concentration was tested in duplicate at least 3 separate times. Adherent cells were allowed to adhere overnight prior to treatment. Alternatively, AMO-1 or NCI-H929 cells were treated with ABBV-467 for the indicated contact times (1–24 h) at 37 °C in a 5% CO2 humidified incubator and washed 3 times with compound-free media prior to incubation for the remainder of a 24-h treatment period. Cell viability was subsequently determined using CellTiter-Glo (Promega, Madison, WI, USA) according to the manufacturer’s instructions.
(§2) For in vitro viability assays, mean EC50 and EC90 values were determined from the resulting dose-response curves from at least 3 independent experiments, and depict the mean ± standard error of the mean.
(§3) Fig. 2 Apoptosis induced by ABBV-467 is mechanism based and induces cell death in MCL-1-dependent cell lines after short target engagement periods. H929 cells were treated with ABBV-467 in the presence or absence of the pan-caspase inhibitor z-VAD-fmk (50 µM) and the impact on caspase-3/7 activation (a), mitochondrial membrane potential (ΔΨm; b), and apoptosis (c) determined. Alternatively, BAK-deficient SKBR3 cells were treated with ABBV-467 for 24 h and the impact on cell viability compared with the parental cell line, determined by CellTiter-Glo. Inset depicts a western blot of BAK and BAX expression in SKBR3 cell variants using GAPDH as a loading control. Each of the 3 proteins were probed on separate blots (d). Data in (a–d) are presented as the mean ± standard error of the mean. H929 and AMO-1 cells were treated with ABBV-467 at the indicated concentrations and the impact on caspase-3/7 activation and viability (DRAQ7-positive) cells determined over time by Incucyte®. Data are presented as the mean ± standard deviation (e). H929 or AMO-1 cells were cultured in media containing 10% human serum and treated with ABBV-467 for the indicated contact times. Cells were subsequently washed 3 times with drug-free media and incubated in drug-free media for the remainder of the 24-h treatment period at 37 °C before cell viability was determined by CellTiter-Glo. Mean EC50 and EC90 values were determined from the resulting dose-response curves from at least 3 independent experiments, each assessed in quadruplicate, and depict the mean ± standard error of the mean. Presented ABBV-467 dose-response curves in H929 and AMO-1 cells were compiled from at least 3 independent experiments (f).

[2] = molecular target: T1, BCL-W (Homo sapiens, UniProt Q92843); assay: Time-resolved FRET binding assay
T1 sequence (Q92843 1-193): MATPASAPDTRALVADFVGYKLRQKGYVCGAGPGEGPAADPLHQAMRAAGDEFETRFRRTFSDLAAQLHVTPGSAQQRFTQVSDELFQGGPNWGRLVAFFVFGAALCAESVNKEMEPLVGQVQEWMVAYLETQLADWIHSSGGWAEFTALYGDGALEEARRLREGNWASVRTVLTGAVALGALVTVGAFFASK
Experimental: (§4) Binding affinities for MCL-1, BCL-2, BCL-XL, BCL-W, and BCL2-A1 were determined using a time-resolved fluorescence resonance energy transfer (FRET) assay. Test compounds were serially diluted in DMSO starting at […] (20× starting concentration; 100% DMSO followed by a 1:10 dilution of the compound DMSO plate into assay buffer); 10 µL of the compound in 10% DMSO was then transferred into a 384-well plate (low-volume Corning #3673 assay plate). Glutathione S-transferase (GST)-tagged recombinant BCL-2, BCL-XL, MCL-1, BCL-W, or BCL2-A1 protein (1 nM each) were mixed with 100 nM Oregon Green™-labeled f-BAK peptide probe and 1 nM Tb-labeled anti-GST antibody were mixed. Then 10 µL of a 2× protein/probe/antibody mix was added to each well of increasing concentrations of test compound in assay buffer (20 mM potassium phosphate, pH 7.6, 50 mM NaCl, 1 mM ethylenediaminetetraacetic acid disodium salt dihydrate, 0.05% pluronic acid F-68, 1 mM DL-dithiothreitol) at room temperature (final concentrations listed in Supplementary Table S2). The samples were then mixed on a shaker for 1 min and incubated for an additional 1 h at room temperature. For each assay plate, a probe/antibody and protein/antibody/probe mixture were included as a negative and a positive control, respectively. Fluorescence was measured on the EnVision™ (Perkin Elmer) using a 340/35-nm excitation filter and 520/525- (F-Bak) and 495/510-nm (Tb-labeled anti-glutathione S-transferase [GST] antibody) emission filters. Dissociation constants were determined using Wang’s equation[35]. The time-resolved FRET assay can be performed in the presence of varying concentrations of human serum to determine apparent half-maximal inhibitory concentration after serum protein binding.

[3] = molecular target: T2, BCL2-A1 (Homo sapiens, UniProt Q16548); assay: Time-resolved FRET binding assay
T2 sequence (Q16548 1-175): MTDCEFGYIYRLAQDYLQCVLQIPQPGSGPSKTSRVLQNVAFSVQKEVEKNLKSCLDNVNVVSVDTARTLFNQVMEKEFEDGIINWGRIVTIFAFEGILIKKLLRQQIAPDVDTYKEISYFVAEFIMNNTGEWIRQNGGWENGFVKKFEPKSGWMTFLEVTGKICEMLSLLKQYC
Experimental: as §4

[4] = molecular target: BCL-XL (Homo sapiens, UniProt Q07817); assay: Time-resolved FRET binding assay
BCL-XL, sequence (Q07817 whole entry): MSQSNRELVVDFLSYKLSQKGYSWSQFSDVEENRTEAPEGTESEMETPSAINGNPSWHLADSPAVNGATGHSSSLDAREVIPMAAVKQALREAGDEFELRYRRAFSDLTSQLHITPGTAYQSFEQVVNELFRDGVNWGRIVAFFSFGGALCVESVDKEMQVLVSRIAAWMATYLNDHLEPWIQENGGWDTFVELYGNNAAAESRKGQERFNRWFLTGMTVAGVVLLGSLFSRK
Experimental: as §4

[5] = molecular target: BCL-2 (Homo sapiens, UniProt P10415); assay: Time-resolved FRET binding assay
BCL-2, sequence (P10415 whole entry): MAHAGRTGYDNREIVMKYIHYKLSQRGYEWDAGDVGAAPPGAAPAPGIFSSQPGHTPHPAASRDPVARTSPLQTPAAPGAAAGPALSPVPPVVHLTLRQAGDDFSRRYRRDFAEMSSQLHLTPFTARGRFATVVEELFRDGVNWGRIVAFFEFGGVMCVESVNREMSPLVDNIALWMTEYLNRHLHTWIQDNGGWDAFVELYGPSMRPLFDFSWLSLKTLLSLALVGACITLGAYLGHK
Experimental: as §4

[6] = test system: H929 cells; assay: In vitro cell viability assay (CellTiter-Glo); format: cell-based, human; conditions: Homo sapiens
Experimental: as §1, §2, §3

[7] = test system: MV4-11 cells; assay: In vitro cell viability assay (CellTiter-Glo); format: cell-based, human; conditions: Homo sapiens
Experimental: as §1, §2

[8] = test system: DLD-1 cells; assay: In vitro cell viability assay (CellTiter-Glo); format: cell-based, human
Experimental: as §1, §2

[9] = molecular target: human MCL-1 (Homo sapiens, UniProt Q07820); assay: Time-resolved FRET binding assay
human MCL-1, sequence (Q07820 whole entry): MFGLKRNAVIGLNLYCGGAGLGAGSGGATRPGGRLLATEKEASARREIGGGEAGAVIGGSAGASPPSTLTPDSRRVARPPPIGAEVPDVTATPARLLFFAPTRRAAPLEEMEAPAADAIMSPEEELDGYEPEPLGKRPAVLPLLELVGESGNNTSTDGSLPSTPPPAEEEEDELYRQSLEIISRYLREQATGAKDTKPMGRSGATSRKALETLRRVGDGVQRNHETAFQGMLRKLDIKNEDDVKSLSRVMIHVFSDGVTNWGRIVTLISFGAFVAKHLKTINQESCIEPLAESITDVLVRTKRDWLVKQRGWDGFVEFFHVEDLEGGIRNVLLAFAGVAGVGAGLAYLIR
Experimental: as §4, with “Test” for “Binding affinities for MCL-1, BCL-2, BCL-XL, BCL-W, and BCL2-A1 were determined using a time-resolved fluorescence resonance energy transfer (FRET) assay. Test”

[10] = TR-FRET, arithmetic mean, read-out: Arithmetic Mean Ki, BCL-XL
[11] = TR-FRET, individual determinations, read-out: Individual Ki, BCL-XL
[12] = read-out: TR-FRET, Ki, nM BCL-XL
[13] = TR-FRET, arithmetic mean, read-out: Arithmetic Mean Ki, BCL-2
[14] = TR-FRET, individual determinations, read-out: Individual Ki, BCL-2
[15] = read-out: TR-FRET, Ki, nM BCL-2

`COc1ccccc1-c1nccc(COc2ccccc2CC(Oc2ncnc3sc(-c4ccc(F)cc4)c(-c4ccc(OCCN5CCN(C)CC5)c(Cl)c4C)c23)C(=O)O)n1` (stereo not shown) [Compound 1, reference compound] showed an EC50 ([1]; AMO1, 24 h, read-out: AMO-1 EC50 (nM, 10% FBS), 10% FBS, 24 h continuous treatment) of 2.06 nM, an EC50 ([1]; AMO1, AMO-1, arithmetic mean, read-out: Arithmetic Mean EC50 µM) of 2.06 nM and a Ki ([2]; TR-FRET, arithmetic mean, read-out: Arithmetic Mean Ki, BCL-W) of over 468 nM. It also gave a Ki ([2]; TR-FRET, individual determinations, read-out: Individual Ki, BCL-W) of over 468 nM, a Ki ([2]; read-out: TR-FRET, Ki, nM BCL-W) of over 468 nM and a Ki ([3]; TR-FRET, arithmetic mean, read-out: Arithmetic Mean Ki, BCL2-A1) of over 468 nM. For the same molecule, the Ki ([3]; TR-FRET, individual determinations, read-out: Individual Ki, BCL2-A1) was over 468 nM, the Ki ([3]; read-out: TR-FRET, Ki, nM BCL2-A1) was over 468 nM and the Ki [4, 10] was over 660 nM. It also gave a Ki [4, 11] of over 660 nM, a Ki [4, 12] of over 660 nM and a Ki [5, 13] of 599 nM. The Ki [5, 14] was 319 nM and 376 nM and 955 nM and 745 nM, the Ki [5, 15] was 599 nM and the EC50 ([6]; NCI-H929, 24 h, read-out: H929 EC50 (nM, 10% FBS), 10% FBS, 24 h continuous treatment) was 4.75 nM. It also gave an EC50 ([6]; NCI-H929, NCI-H929, arithmetic mean, read-out: Arithmetic Mean EC50 µM) of 4.75 nM, an EC50 ([7]; MV4-11, 24 h, read-out: MV4-11 EC50 (nM, 10% FBS), 10% FBS, 24 h continuous treatment) of 10.9 nM and an EC50 ([7]; MV4-11, MV4-11, arithmetic mean, read-out: Arithmetic Mean EC50 µM) of 10.9 nM. For the same molecule, the EC50 ([8]; DLD-1, individual determinations, listed as MIK665, read-out: Individual EC50) was > 1000 nM and > 10000 nM and 4770 nM and 3350 nM and 6620 nM and 4370 nM and 4270 nM and 5810 nM and 4060 nM and the EC50 ([8]; Homo sapiens, DLD-1, 24 h, read-out: DLD-1 EC50 (nM, 10% FBS), 10% FBS, 24 h continuous treatment) was 4750 nM.
In the case of `COc1ccccc1-c1nccc(COc2ccc3cc2CC(C(=O)O)Oc2ncnc4sc(-c5ccc(F)cc5)c(c24)-c2ccc(c(Cl)c2C)N(CCN2CCN(C)CC2)C3)n1` (stereo not shown) [Compound 2], the Ki [4, 10] is reported as over 660 nM, the Ki [4, 11] is reported as over 660 nM and the Ki [4, 12] is reported as over 660 nM. The Ki [5, 13] was over 1200 nM, the Ki [5, 14] was over 1200 nM and the Ki [5, 15] was over 1200 nM. For the same molecule, the Ki ([9]; TR-FRET, individual determinations, read-out: Individual Ki, MCL1) was 2.48 nM and 5.01 nM and 9.14 nM and the Ki ([9]; read-out: TR-FRET, Ki, nM MCL-1) was 5.54 nM.
